Measurements published in patent publication US7772226B2, “Condensed imidazole derivatives” (Eisai R&D Management Co., Ltd., priority 2002, dated 2010).

Columns and labels:
[1] = tested on: male Wistar rats; experiment: Effect of a Test Compound on the Blood Glucose Level of Fasted Male Wistar Rats; type: in vivo; conditions: oral dose of 10-30 (mg/kg), 0.5, 1 and 3 hours after administration, compared with control group treated with the medium alone
Procedure: Purpose: Effect of a Test Compound on the Blood Glucose Level of Fasted Male Wistar Rats
Animal: male Wistar rats (purchased from Charles River Japan, Inc.)
A test compound was suspended in 0.5% methyl cellulose (MC) solution and administered orally at a dose of 5 mL/kg. The control group was treated with a 0.5% MC solution. The solution was administered orally at a dose of 5 mL/kg.
Immediately before administering a test compound or 0.5% MC solution, and 0.5, 1, and 3 hours after the administration, without anesthetic the caudal vein was lightly cut with a razor blade to let the blood out. 10 μL of blood was collected and combined with 140 μL of 0.6 M perchloric acid solution. The sample was centrifuged at 3000 g at 4° C. for 10 minutes and the resultant supernatant was assayed with the Glucose CII TEST WAKO (Wako Pure Chemical Industries).

[2] = tested on: male C57BL/6N mice; experiment: Acceptable Timing of Administration in In Vivo Test; conditions: oral; given simultaneously with vs one hour before glucose loading (2 g/kg); improvement factor for glucose tolerance compared
Procedure: Acceptable Timing of Administration in In Vivo Test
The respective tests described below were carried out in combination with the in vivo test (administration before 0.5 hour) as described in Assay Example 2:
1. A test compound is administered simultaneously with glucose loading (2 g/kg) (the test compound is suspended in an aqueous solution of 0.5% methyl cellulose; the solution is combined with an equal volume of a glucose solution; and the mixture is administered orally at a dose of 10 ml/kg);
2. A test compound is administered one hour before glucose loading (2 g/kg) (the test compound suspended in an aqueous solution of 0.5% methyl cellulose is administered orally one hour before the oral administration of the glucose solution; each is given orally at a dose of 10 ml/kg).
The improvement factor for glucose tolerance is estimated in each test.

[3] = target: T1, Porcine kidney-derived DPP-IV (Sus scrofa, UniProt P22411); experiment: DPPIV-inhibiting Activity Assay; type: biochemical; conditions: substrate Gly-Pro-p-nitroanilide 0.33 mM, absorbance at 405 nm
T1 construct: Porcine kidney-derived DPP-IV was dissolved in a reaction buffer; from tissue; host or cells: porcine kidney
T1 sequence (P22411 whole entry): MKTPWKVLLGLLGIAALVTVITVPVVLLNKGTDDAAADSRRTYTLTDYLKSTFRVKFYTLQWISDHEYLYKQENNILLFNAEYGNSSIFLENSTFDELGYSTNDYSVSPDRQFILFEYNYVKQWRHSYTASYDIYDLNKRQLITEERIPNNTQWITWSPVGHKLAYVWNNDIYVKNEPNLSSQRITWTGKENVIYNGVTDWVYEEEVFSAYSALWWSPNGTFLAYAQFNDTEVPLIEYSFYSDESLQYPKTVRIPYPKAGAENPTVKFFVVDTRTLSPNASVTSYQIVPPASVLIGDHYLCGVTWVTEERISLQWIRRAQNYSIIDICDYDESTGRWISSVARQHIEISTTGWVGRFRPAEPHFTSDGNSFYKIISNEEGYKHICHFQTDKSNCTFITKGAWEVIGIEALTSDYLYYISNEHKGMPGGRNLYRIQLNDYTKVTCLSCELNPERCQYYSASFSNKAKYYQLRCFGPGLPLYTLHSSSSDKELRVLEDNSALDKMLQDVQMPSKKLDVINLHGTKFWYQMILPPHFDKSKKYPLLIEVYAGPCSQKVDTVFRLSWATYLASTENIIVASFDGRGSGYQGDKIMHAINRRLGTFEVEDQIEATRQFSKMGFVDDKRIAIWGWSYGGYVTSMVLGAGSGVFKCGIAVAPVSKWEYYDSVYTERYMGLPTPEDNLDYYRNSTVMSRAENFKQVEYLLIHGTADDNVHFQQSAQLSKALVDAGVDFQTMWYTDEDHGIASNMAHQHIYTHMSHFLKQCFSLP
Procedure: DPPIV-inhibiting Activity Assay
Porcine kidney-derived DPP-IV was dissolved in a reaction buffer (50 mM Tris-HCl (pH 7.4)/0.1% BSA) at a concentration of […]. After 110 μl of this solution had been combined with 15 μl of an agent, the mixture was incubated at room temperature for 20 minutes. 25 μl of 2 mM Gly-Pro-p-nitroanilide was added (to a final concentration of 0.33 mM) to the solution to initiate the enzyme reaction. The reaction time was 20 minutes. 25 μl of 1N phosphoric acid solution was added to the reaction solution to quench the reaction.

| Compound | change in the blood glucose level [1] | range of acceptable timing of administration [2] | IC50 [3] [nM] |
| --- | --- | --- | --- |
| CC#CCn1c(N2CCNCC2)nc2nc(C#N)n(C)c(=O)c21.O=C(O)C(F)(F)F [Example 82, 7-(2-Butynyl)-2-cyano-1-methyl-8-(piperazin-1-yl)-1,7-dihydropurin-6-one trifluoroacetate] | no significant change | sufficiently wide ranges of acceptable timing of administration | – |
| CC#CCn1c(N2CCNCC2)nc2cnn(C)c(=O)c21 [Example 119, 3-(2-Butynyl)-5-methyl-2-(piperazin-1-yl)-3,5-dihydroimidazo[4,5-d]pyridazin-4-one] | no significant change | sufficiently wide ranges of acceptable timing of administration | – |
| CC#CCn1c(N2CCCC(N)C2)nc2cnn(C)c(=O)c21.O=C(O)C(F)(F)F (stereo not shown) [Example 120, 2-(3-Aminopiperidin-1-yl)-3-(2-butynyl)-5-methyl-3,5-dihydroimidazo[4,5-d]pyridazin-4-one trifluoroacetate] | no significant change | sufficiently wide ranges of acceptable timing of administration | – |
| CC#CCn1c(N2CCNCC2)nc2nc(Oc3ccccc3C(N)=O)n(C)c(=O)c21 [Example 122, 2-[7-(2-Butynyl)-1-methyl-6-oxo-8-(piperazin-1-yl)-6,7-dihydro-1H-purin-2-yloxy]benzamide] | no significant change | sufficiently wide ranges of acceptable timing of administration | – |
| CC#CCn1c(N2CCNCC2)nc2nc(C#N)n(Cc3ccccc3C#N)c(=O)c21.Cl [Example 229, 7-(2-Butynyl)-1-(2-cyanobenzyl)-6-oxo-8-(piperazin-1-yl)-6,7-dihydro-1H-purine-2-carbonitrile hydrochloride] | no significant change | sufficiently wide ranges of acceptable timing of administration | – |
| CC#CCn1c(N2CCNCC2)nc2cnn(Cc3ccccc3C#N)c(=O)c21.O=C(O)C(F)(F)F [Example 267, 2-[3-(2-Butynyl)-4-oxo-2-(piperazin-1-yl)-3,4-dihydroimidazo[4,5-d]pyridazin-5-ylmethyl]benzonitrile trifluoroacetate] | no significant change | sufficiently wide ranges of acceptable timing of administration | – |
| Methyl 2-[7-(2-butynyl)-1-methyl-6-oxo-8-(piperazin-1-yl)-6,7-dihydro-1H-purin-2-yloxy]phenylacetate trifluoroacetate [Example 4] | – | – | 211 |
